Measured values taken from PubChem BioAssay (NCI).
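Tested at 5 concentrations; 48 h exposure; 96-well plates; endpoints linearly interpolated, else capped at highest concentration. Here, GI50 denotes the concentration required for 50% inhibition of growth. At the TGI there is no net growth.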

How the values were obtained:
Assay in all cases: NCI-60 cell line screen, 48 h
SF-295 CNS = system: SF-295 CNS
KM12 colon = system: KM12 colon
MCF7 breast = system: MCF7 breast
SR leukemia = system: SR leukemia
HS 578T breast = system: HS 578T breast
ACHN renal = system: ACHN renal
K-562 leukemia = system: K-562 leukemia
M14 melanoma = system: M14 melanoma
NCI-H226 lung = system: NCI-H226 lung
NCI-H460 lung = system: NCI-H460 lung
A549 NSCLC = system: A549 NSCLC
RPMI-8226 leukemia = system: RPMI-8226 leukemia
HOP-62 NSCLC = system: HOP-62 NSCLC
T-47D breast = system: T-47D breast
SK-MEL-2 melanoma = system: SK-MEL-2 melanoma
U251 CNS = system: U251 CNS
NCI/ADR-RES ovarian = system: NCI/ADR-RES ovarian
NCI-H23 lung = system: NCI-H23 lung
OVCAR-8 ovarian = system: OVCAR-8 ovarian
SF-268 CNS = system: SF-268 CNS
IGROV1 ovarian = system: IGROV1 ovarian
MALME-3M melanoma = system: MALME-3M melanoma
786-0 renal = system: 786-0 renal
BT-549 breast = system: BT-549 breast
SNB-19 CNS = system: SNB-19 CNS
UO-31 renal = system: UO-31 renal
LOX IMVI melanoma = system: LOX IMVI melanoma
HCC-2998 colon = system: HCC-2998 colon
UACC-257 melanoma = system: UACC-257 melanoma
TK-10 renal = system: TK-10 renal
HOP-92 NSCLC = system: HOP-92 NSCLC
COLO 205 colon = system: COLO 205 colon
UACC-62 melanoma = system: UACC-62 melanoma
HCT-116 colon = system: HCT-116 colon
EKVX NSCLC = system: EKVX NSCLC
RXF 393 renal = system: RXF 393 renal
OVCAR-5 ovarian = system: OVCAR-5 ovarian
PC-3 prostate = system: PC-3 prostate
OVCAR-3 ovarian = system: OVCAR-3 ovarian
SF-539 CNS = system: SF-539 CNS
A498 renal = system: A498 renal
MOLT-4 leukemia = system: MOLT-4 leukemia
SK-OV-3 ovarian = system: SK-OV-3 ovarian
MDA-MB-231 breast = system: MDA-MB-231 breast
SW-620 colon = system: SW-620 colon
OVCAR-4 ovarian = system: OVCAR-4 ovarian
CCRF-CEM leukemia = system: CCRF-CEM leukemia
SK-MEL-28 melanoma = system: SK-MEL-28 melanoma
HT29 colon = system: HT29 colon
HL-60(TB) leukemia = system: HL-60(TB) leukemia
HCT-15 colon = system: HCT-15 colon
SK-MEL-5 melanoma = system: SK-MEL-5 melanoma
SNB-75 CNS = system: SNB-75 CNS
MDA-MB-435 = system: MDA-MB-435
DU-145 prostate = system: DU-145 prostate
CAKI-1 renal = system: CAKI-1 renal
NCI-H522 lung = system: NCI-H522 lung
SN12C renal = system: SN12C renal

CCN(CC)C(=O)C[n+]1c2ccccc2n2cc(N)ccc21
TGI (SF-295 CNS): > 100 µM
TGI (KM12 colon): > 100 µM
TGI (MCF7 breast): > 100 µM
TGI (SR leukemia): > 100 µM
TGI (HS 578T breast): > 100 µM
TGI (ACHN renal): > 100 µM
TGI (K-562 leukemia): > 100 µM
TGI (M14 melanoma): > 100 µM
TGI (NCI-H226 lung): > 100 µM
TGI (NCI-H460 lung): > 100 µM
TGI (A549 NSCLC): > 100 µM
TGI (RPMI-8226 leukemia): > 100 µM
TGI (HOP-62 NSCLC): > 100 µM
TGI (T-47D breast): > 100 µM
TGI (SK-MEL-2 melanoma): > 100 µM
TGI (U251 CNS): > 100 µM
TGI (NCI/ADR-RES ovarian): > 100 µM
TGI (NCI-H23 lung): > 100 µM
TGI (OVCAR-8 ovarian): > 100 µM
TGI (SF-268 CNS): > 100 µM
TGI (IGROV1 ovarian): > 100 µM
TGI (MALME-3M melanoma): > 100 µM
TGI (786-0 renal): > 100 µM
TGI (BT-549 breast): > 100 µM
TGI (SNB-19 CNS): > 100 µM
TGI (UO-31 renal): > 100 µM
TGI (LOX IMVI melanoma): > 100 µM
TGI (HCC-2998 colon): > 100 µM
TGI (UACC-257 melanoma): > 100 µM
TGI (TK-10 renal): > 100 µM
TGI (HOP-92 NSCLC): > 100 µM
TGI (COLO 205 colon): > 100 µM
TGI (UACC-62 melanoma): > 100 µM
TGI (HCT-116 colon): > 100 µM
TGI (EKVX NSCLC): > 100 µM
TGI (RXF 393 renal): > 100 µM
TGI (OVCAR-5 ovarian): > 100 µM
TGI (PC-3 prostate): > 100 µM
TGI (OVCAR-3 ovarian): > 100 µM
TGI (SF-539 CNS): > 100 µM
TGI (A498 renal): > 100 µM
TGI (MOLT-4 leukemia): > 100 µM
TGI (SK-OV-3 ovarian): > 100 µM
TGI (MDA-MB-231 breast): > 100 µM
TGI (SW-620 colon): > 100 µM
TGI (OVCAR-4 ovarian): > 100 µM
TGI (CCRF-CEM leukemia): > 100 µM
TGI (SK-MEL-28 melanoma): > 100 µM
TGI (HT29 colon): > 100 µM
TGI (HL-60(TB) leukemia): > 100 µM
TGI (HCT-15 colon): > 100 µM
TGI (SK-MEL-5 melanoma): > 100 µM
TGI (SNB-75 CNS): > 100 µM
TGI (MDA-MB-435): > 100 µM
TGI (DU-145 prostate): > 100 µM
TGI (CAKI-1 renal): > 100 µM

N=C(N)N=Nc1ccc(NN=C(N)N)c2c1ncc1c2nc2sccn21
GI50 (SF-295 CNS): 32 µM
TGI (SF-295 CNS): > 100 µM
GI50 (KM12 colon): 21.9 µM
TGI (KM12 colon): > 100 µM
GI50 (MCF7 breast): 23 µM
TGI (MCF7 breast): > 100 µM
GI50 (NCI-H522 lung): 22.1 µM
TGI (NCI-H522 lung): > 100 µM
GI50 (SR leukemia): > 100 µM
TGI (SR leukemia): > 100 µM
GI50 (HS 578T breast): 18.9 µM
TGI (HS 578T breast): 63.4 µM
GI50 (ACHN renal): 22.3 µM
TGI (ACHN renal): 51.3 µM
GI50 (K-562 leukemia): 31.4 µM
TGI (K-562 leukemia): > 100 µM
GI50 (M14 melanoma): 22.9 µM
TGI (M14 melanoma): 80 µM
GI50 (NCI-H226 lung): 32.3 µM
TGI (NCI-H226 lung): > 100 µM
GI50 (NCI-H460 lung): 24 µM
TGI (NCI-H460 lung): > 100 µM
GI50 (A549 NSCLC): 42.7 µM
TGI (A549 NSCLC): > 100 µM
GI50 (RPMI-8226 leukemia): 14 µM
TGI (RPMI-8226 leukemia): 91.2 µM
GI50 (HOP-62 NSCLC): 29.6 µM
TGI (HOP-62 NSCLC): > 100 µM
GI50 (T-47D breast): > 100 µM
TGI (T-47D breast): > 100 µM
GI50 (U251 CNS): 23.2 µM
TGI (U251 CNS): > 100 µM
GI50 (NCI/ADR-RES ovarian): 28.6 µM
TGI (NCI/ADR-RES ovarian): > 100 µM
GI50 (NCI-H23 lung): 32.1 µM
TGI (NCI-H23 lung): > 100 µM
GI50 (OVCAR-8 ovarian): 27.3 µM
TGI (OVCAR-8 ovarian): > 100 µM
GI50 (SF-268 CNS): 10.7 µM
TGI (SF-268 CNS): 35.9 µM
GI50 (IGROV1 ovarian): 8.7 µM
TGI (IGROV1 ovarian): > 100 µM
GI50 (MALME-3M melanoma): 21.9 µM
TGI (MALME-3M melanoma): 45.9 µM
GI50 (786-0 renal): 29.2 µM
TGI (786-0 renal): > 100 µM
GI50 (BT-549 breast): 16.5 µM
TGI (BT-549 breast): 32.9 µM
GI50 (SN12C renal): 36.4 µM
TGI (SN12C renal): > 100 µM
GI50 (SNB-19 CNS): > 100 µM
TGI (SNB-19 CNS): > 100 µM
GI50 (UO-31 renal): 23.7 µM
TGI (UO-31 renal): > 100 µM
GI50 (LOX IMVI melanoma): 21.1 µM
TGI (LOX IMVI melanoma): > 100 µM
GI50 (HCC-2998 colon): 65.7 µM
TGI (HCC-2998 colon): > 100 µM
GI50 (UACC-257 melanoma): 18.6 µM
TGI (UACC-257 melanoma): 40.6 µM
GI50 (TK-10 renal): 18 µM
TGI (TK-10 renal): 35.5 µM
GI50 (HOP-92 NSCLC): 25.5 µM
TGI (HOP-92 NSCLC): 65.4 µM
GI50 (COLO 205 colon): 40.6 µM
TGI (COLO 205 colon): > 100 µM
GI50 (UACC-62 melanoma): 21.3 µM
TGI (UACC-62 melanoma): 57.2 µM
GI50 (HCT-116 colon): 25.8 µM
TGI (HCT-116 colon): > 100 µM
GI50 (EKVX NSCLC): 21.6 µM
TGI (EKVX NSCLC): 45.8 µM
GI50 (RXF 393 renal): 8.98 µM
TGI (RXF 393 renal): 34.6 µM
GI50 (OVCAR-5 ovarian): 27.8 µM
TGI (OVCAR-5 ovarian): 72.1 µM
GI50 (PC-3 prostate): 27 µM
TGI (PC-3 prostate): 99.5 µM
GI50 (OVCAR-3 ovarian): 18.8 µM
TGI (OVCAR-3 ovarian): > 100 µM
GI50 (SF-539 CNS): 21 µM
TGI (SF-539 CNS): 94.8 µM
GI50 (A498 renal): 24.2 µM
TGI (A498 renal): 80 µM
GI50 (MOLT-4 leukemia): 80.3 µM
TGI (MOLT-4 leukemia): > 100 µM
GI50 (SK-OV-3 ovarian): 93.4 µM
TGI (SK-OV-3 ovarian): > 100 µM
GI50 (MDA-MB-231 breast): 33 µM
TGI (MDA-MB-231 breast): 66.6 µM
GI50 (SW-620 colon): 23.9 µM
TGI (SW-620 colon): 67.8 µM
GI50 (OVCAR-4 ovarian): 22.6 µM
TGI (OVCAR-4 ovarian): 74.2 µM
GI50 (CCRF-CEM leukemia): 20.8 µM
TGI (CCRF-CEM leukemia): > 100 µM
GI50 (SK-MEL-28 melanoma): 30.6 µM
TGI (SK-MEL-28 melanoma): 95 µM
GI50 (HT29 colon): 55.6 µM
TGI (HT29 colon): > 100 µM
GI50 (HL-60(TB) leukemia): 73.6 µM
TGI (HL-60(TB) leukemia): > 100 µM
GI50 (HCT-15 colon): 16.7 µM
TGI (HCT-15 colon): 59.3 µM
GI50 (SK-MEL-5 melanoma): 15.7 µM
TGI (SK-MEL-5 melanoma): 37.7 µM
GI50 (SNB-75 CNS): 25.9 µM
TGI (SNB-75 CNS): > 100 µM
GI50 (MDA-MB-435): 19.5 µM
TGI (MDA-MB-435): 52.1 µM
GI50 (DU-145 prostate): 15.3 µM
TGI (DU-145 prostate): 44.3 µM
